Laboratory results reported in patent US20160264593A1 (priority 2013, published 2016).
Where “and” joins values, the source holds several entries; their conditions need not be identical. Equal entries are not always repeated. Entries after “also recorded” stand apart in the source; their conditions may differ. Where two headings read alike, the source gives them in different places.

Tests used:
[1] = test system: PP2A; test: PP2A activity in mouse livers after IP dosing (PP2A immunoprecipitation phosphatase assay, malachite green); assay type: in vivo, Balb/c mice; details: for Average Conc. (group of 3 mice) / Average Relative Activity (group, vehicle = 100) / Conc. (phosphate, single reading, per mouse) / Mean Conc. (per mouse) / Mean Conc. less IgG blank (per mouse) / Relative Conc. (per mouse, to vehicle) / Relative PP2A Activity (per mouse, vehicle = 100): liver
Method in brief: (§1)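 Female Balb/c mice (6-8 weeks) were dosed IP with compound in 4% sodium bicarbonate; brain and liver were harvested 3 h and 6 h post-dose. PP2A was immunoprecipitated from 240 μg lysate with anti-PP2A, using normal IgG as control. Phosphatase activity on a threonine phosphopeptide was read by malachite green absorbance against a phosphate standard curve.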

[2] = test system: lung cancer (A549) cells; test: WST cell viability assay, A549; assay type: cell-based; details: Homo sapiens, A549, read-out: IC50 A549
[3] = test system: PP2A; test: PP2A activity in mouse brains after IP dosing (PP2A immunoprecipitation phosphatase assay, malachite green); assay type: in vivo, Balb/c mice; details: for Average Conc. (group of 3 mice) / Average Relative Activity (group, vehicle = 100) / Conc. (phosphate, single reading, per mouse) / Mean Conc. (per mouse) / Mean Conc. less IgG blank (per mouse) / Relative Conc. (per mouse, to vehicle) / Relative PP2A Activity (per mouse, vehicle = 100): brain; for PP2A activity in brains as compared with vehicle: high doses IP
Method in brief: as §1

[4] = test system: glioblastoma (U-87) cells; test: WST cell viability assay, U-87 MG; assay type: cell-based; details: Homo sapiens, U-87 MG
[5] = test system: breast cancer (2LMP) cells; test: WST cell viability assay, 2LMP
Description: IC50 values were obtained for cytotoxicity against breast cancer (2LMP), glioblastoma (U-87) and lung cancer (A549) cells (See Table 5 and FIGS. 3-5).

[6] = IP, dose and time not specified
[7] = high dose IP (mpk: 100 1.5, 113 2.2, 151 1.6, 157 2.0), 3 h
[8] = high dose IP (mpk: 100 1.5, 113 2.2, 151 1.6, 157 2.0), 6 h
[9] = low dose IP (mpk: 100 0.75, 113 1.1, 151 0.8, 153 0.85, 157 1.0), 3 h
[10] = low dose IP (mpk: 100 0.75, 113 1.1, 151 0.8, 153 0.85, 157 1.0), 6 h
[11] = high dose IP (mpk: 100 1.5, 113 2.2, 151 1.6, 153 1.7, 157 2.0), 3 h
[12] = high dose IP (mpk: 100 1.5, 113 2.2, 151 1.6, 153 1.7, 157 2.0), 6 h

**Q.** For `CCCCCCCOC(=O)C1C2CCC(O2)C1C(=O)N1CCN(C)CC1` (centres unmarked) [Compound 157, 3-(4-Methylpiperazine-1-carbonyl)-7-oxa-bicyclo[2,2,1]heptane-2-carboxylic acid heptyl ester], which “PP2A activity in the liver of mice (statement)” value [1, 6] is on record?
**A.** inhibited PP2A activity

**Q.** What about the “Average Conc. (group of 3 mice)” value [1, 7] of the same compound?
**A.** 234.28

**Q.** What about the “Average Relative Activity (group, vehicle = 100)” value (shortened to “Average Relative Activity”) [1, 7] of the same compound?
**A.** 55.78

**Q.** What about the “Conc. (phosphate, single reading, per mouse)” value [1, 7] of the same compound?
**A.** 344.85 and 360.53 and 257.33 and 287.81 and 202.46 and 225.54

**Q.** What about the “Mean Conc. (per mouse)” value [1, 7] of the same compound?
**A.** 352.69 and 272.57 and 214

**Q.** And the “Mean Conc. less IgG blank (per mouse)” value [1, 7]?
**A.** 307.22 and 227.09 and 168.52

**Q.** And the “Relative Conc. (per mouse, to vehicle)” value [1, 7]?
**A.** 0.73 and 0.54 and 0.4

**Q.** What about the “Relative PP2A Activity (per mouse, vehicle = 100)” value [1, 7] of the same compound?
**A.** 73.15 and 54.07 and 40.13

**Q.** What about the “Average Conc. (group of 3 mice)” value [1, 8] of the same compound?
**A.** 232.03

**Q.** What about the “Average Relative Activity” value [1, 8] of the same compound?
**A.** 52.2

**Q.** And the “Conc. (phosphate, single reading, per mouse)” value [1, 8]?
**A.** 266.91 and 213.78 and 382.3 and 411.92 and 190.7 and 199.41

**Q.** What about the “Mean Conc. (per mouse)” value [1, 8] of the same compound?
**A.** 240.34 and 397.11 and 195.06

**Q.** What about the “Mean Conc. less IgG blank (per mouse)” value [1, 8] of the same compound?
**A.** 194.87 and 351.63 and 149.58

**Q.** What about the “Relative Conc. (per mouse, to vehicle)” value [1, 8] of the same compound?
**A.** 0.44 and 0.79 and 0.34

**Q.** And the “Relative PP2A Activity (per mouse, vehicle = 100)” value [1, 8]?
**A.** 43.84 and 79.11 and 33.65

**Q.** And the “activity of PP2A in livers as compared with vehicle (statement)” value ([1]; high dose IP, 6 h post treatment)?
**A.** significantly inhibited

**Q.** What about the “Average Conc. (group of 3 mice)” value [1, 9] of the same compound?
**A.** 328.84

**Q.** What about the “Average Relative Activity” value [1, 9] of the same compound?
**A.** 78.3

**Q.** And the “Average Conc. (group of 3 mice)” value [1, 10]?
**A.** 359.62

**Q.** What about the “Average Relative Activity” value [1, 10] of the same compound?
**A.** 80.9

**Q.** What about the IC50 [2] of the same compound?
**A.** > 100 µM

**Q.** What about the “PP2A activity in the brain of mice (statement)” value [3, 6] of the same compound?
**A.** inhibited PP2A activity

**Q.** What about the “Average Conc. (group of 3 mice)” value [3, 11] of the same compound?
**A.** 1343.13

**Q.** And the “Average Relative Activity” value [3, 11]?
**A.** 54.50

**Q.** And the “Conc. (phosphate, single reading, per mouse)” value [3, 11]?
**A.** 1589.30 and 1726.49 and 1634.83 and 1576.29 and 896.81 and 863.27

**Q.** What about the “Mean Conc. (per mouse)” value [3, 11] of the same compound?
**A.** 1657.89 and 1605.56 and 880.04

**Q.** And the “Mean Conc. less IgG blank (per mouse)” value [3, 11]?
**A.** 1619.87 and 1567.53 and 842.01

**Q.** And the “Relative Conc. (per mouse, to vehicle)” value [3, 11]?
**A.** 0.75 and 0.72 and 0.39

**Q.** What about the “Relative PP2A Activity (per mouse, vehicle = 100)” value [3, 11] of the same compound?
**A.** 65.72 and 63.60 and 34.16

**Q.** What about the “Average Conc. (group of 3 mice)” value [3, 12] of the same compound?
**A.** 1748.29

**Q.** What about the “Average Relative Activity” value [3, 12] of the same compound?
**A.** 62.95

**Q.** What about the “Conc. (phosphate, single reading, per mouse)” value [3, 12] of the same compound?
**A.** 1929.55 and 2102.31 and 1375.88 and 1308.40 and 1958.00 and 2043.77

**Q.** What about the “Mean Conc. (per mouse)” value [3, 12] of the same compound?
**A.** 2015.93 and 1342.14 and 2000.89

**Q.** And the “Mean Conc. less IgG blank (per mouse)” value [3, 12]?
**A.** 1977.90 and 1304.11 and 1962.86

**Q.** What about the “Relative Conc. (per mouse, to vehicle)” value [3, 12] of the same compound?
**A.** 0.81 and 0.53 and 0.80

**Q.** What about the “Relative PP2A Activity (per mouse, vehicle = 100)” value [3, 12] of the same compound?
**A.** 71.22 and 46.96 and 70.67

**Q.** And the “activity of PP2A in brains (statement)” value ([3]; high dose IP, 3 h)?
**A.** most potent; also recorded: significantly inhibited; also recorded: more effectively than compound 100

**Q.** What about the “activity of PP2A in brains (statement)” value ([3]; high dose IP, 6 h) of the same compound?
**A.** most potent; also recorded: significantly inhibited; also recorded: more effectively than compound 100

**Q.** What about the “PP2A activity in brains as compared with vehicle” value ([3]; 3 h post treatment) of the same compound?
**A.** 51%

**Q.** What about the “PP2A activity in brains as compared with vehicle” value ([3]; 6 h post treatment) of the same compound?
**A.** 63%

**Q.** And the “Average Conc. (group of 3 mice)” value [3, 9]?
**A.** 1523.35

**Q.** And the “Average Relative Activity” value [3, 9]?
**A.** 61.81

**Q.** What about the “Conc. (phosphate, single reading, per mouse)” value [3, 9] of the same compound?
**A.** 1696.01 and 1732.18 and 1420.80 and 1346.00 and 1604.74 and 1568.56

**Q.** What about the “Mean Conc. (per mouse)” value [3, 9] of the same compound?
**A.** 1714.09 and 1383.40 and 1586.65

**Q.** What about the “Mean Conc. less IgG blank (per mouse)” value [3, 9] of the same compound?
**A.** 1676.07 and 1345.37 and 1548.63

**Q.** What about the “Relative Conc. (per mouse, to vehicle)” value [3, 9] of the same compound?
**A.** 0.77 and 0.62 and 0.71

**Q.** And the “Relative PP2A Activity (per mouse, vehicle = 100)” value [3, 9]?
**A.** 68.00 and 54.59 and 62.83

**Q.** And the “Average Conc. (group of 3 mice)” value [3, 10]?
**A.** 1413.26

**Q.** What about the “Average Relative Activity” value [3, 10] of the same compound?
**A.** 50.88

**Q.** What about the “Conc. (phosphate, single reading, per mouse)” value [3, 10] of the same compound?
**A.** 1975.68 and 1782.39 and 1408.40 and 1380.55 and 1075.87 and 1084.82

**Q.** What about the “Mean Conc. (per mouse)” value [3, 10] of the same compound?
**A.** 1879.04 and 1394.48 and 1080.34

**Q.** And the “Mean Conc. less IgG blank (per mouse)” value [3, 10]?
**A.** 1841.01 and 1356.45 and 1042.32

**Q.** What about the “Relative Conc. (per mouse, to vehicle)” value [3, 10] of the same compound?
**A.** 0.75 and 0.55 and 0.43

**Q.** And the “Relative PP2A Activity (per mouse, vehicle = 100)” value [3, 10]?
**A.** 66.29 and 48.84 and 37.53

**Q.** And the “activity of PP2A in brains (statement)” value ([3]; low dose IP, 6 h)?
**A.** most potent

**Q.** And the IC50 ([4]; read-out: IC50 U-87 MG, WST-20131017 (first value of the cell))?
**A.** > 100 µM

**Q.** What about the IC50 ([4]; read-out: IC50 U-87 MG, WST-20131024 (second value of the cell)) of the same compound?
**A.** > 100 µM

**Q.** What about the IC50 ([5]; read-out: IC50 2LMP, WST-20131015 (first value of the cell)) of the same compound?
**A.** 92.2 µM

**Q.** And the IC50 ([5]; read-out: IC50 2LMP, WST-20131025 (second value of the cell))?
**A.** 96.4 µM
